Patent US12226449B2, “Materials and methods for the prevention of rheumatoid arthritis” (The University of Toledo, priority 2018, dated 2025)
Entries after “also recorded” stand apart in the source; their conditions may differ.

Legend:
[1] = test system: human PBMCs; test: ELISA of secreted (accumulated) cytokines of PBMCs; type: cell-based; conditions: PBMC in the presence of 14-3-3ζ
[2] = test system: rats; test: Immunization of rats with IFA and 14-3-3ζ without pristane; type: in vivo, rat; conditions: pristane absent
[3] = test system: human PBMCs; test: PBMC proliferation, MTT assay; type: cell-based; conditions: purified 14-3-3ζ 300 ng/ml and 1000 ng/ml, by 8 d; PHA 1% positive control
Protocol: Blood from healthy donors was collected as per the approved IRB protocol. The protocol for isolation of PBMCs was previously reported. In short, whole blood was diluted with an equal volume of RPMI before layering on Ficoll-Paque PLUS in a 15 mL tube. Tubes were then centrifuged for 25 minutes with the brakes off at 950 g. PBMCs were collected from the layer between the plasma and Ficoll liquid. PBMCs were then washed twice with RPMI, with 7 min spins at 350×g to pellet the cells. Finally, cells were resuspended in complete RPMI before counting and plating. […] Phytohemagglutinin (PHA) was used as a positive control. 10 μl MTT was added at a concentration of 5 mg/mL, and the plate was further incubated at 37° C. in the dark for 3 hours. Supernatant was then removed, and 100 μL DMSO was added for another hour before reading the absorbance at 570 nm using FLUOstar Omega microplate reader (BMG Labtech). For T cell differentiation, PBMCs were incubated with 1 μg/ml of 14-3-3ζ for 7 days followed by either the cellular staining for FACS analysis or ELISPOT as per manufacture's protocol.

[4] = test system: 14-3-3ζ KO rats; test: Pristane-induced arthritis in 14-3-3ζ KO rats, 14-3-3ζ immunization; type: in vivo, rat; conditions: IFA+14-3-3ζ vs IFA, days post-pristane
Source text: FIGS. 16A-16B, to determine whether 14-3-3ζ is sufficient for RA suppression, 14-3-3ζ KO rats that are more susceptible to RA were used.

[5] = test system: human PBMCs; test: ELISPOT assay of IFN-γ and IL-17 secreting cells; type: cell-based
Protocol: Cells were plated with 14-3-3ζ protein in a 96-well plate for 14 days at 37° C. in complete RPMI culture medium. Phytohemagglutinin (PHA) was used as a positive control. 10 μl MTT was added at a concentration of 5 mg/mL, and the plate was further incubated at 37° C. in the dark for 3 hours. Supernatant was then removed, and 100 μL DMSO was added for another hour before reading the absorbance at 570 nm using FLUOstar Omega microplate reader (BMG Labtech). For T cell differentiation, PBMCs were incubated with 1 μg/ml of 14-3-3ζ for 7 days followed by either the cellular staining for FACS analysis or ELISPOT as per manufacture's protocol. For testing the effect of drugs, prednisolone, prednisone, as well as TJU103, were used at 1 μg/ml concentration and cyclophosphamide was used at 0.1 μg/ml concentration.
The protocol was adopted from Immunospot kit from Cellular Technology Limited. In short, PBMCs incubated with 14-3-3ζ for 7 days were plated on the antibody coated ELISPOT plates. About 100,000 cells/well were added and incubated for 2 days at 37° C. followed by the developing protocol. Plates were read with a Quantihub ELISPOT plate reader and manually counted.

[6] = test system: human PBMCs; test: T cell polarization of PBMCs by flow cytometry (CD4, CD366, IL-17, CD8, CD69); type: cell-based; conditions: incubated with 14-3-3ζ, 3 d
[7] = test system: PBMC isolated from normal Lewis rats; test: Proliferation of rat PBMC incubated ex vivo; type: cell-based; conditions: incubated with 14-3-3ζ ex vivo
[8] = test system: human PBMCs; test: T cell polarization of PBMCs by flow cytometry (CD4, CD366, IL-17, CD8, CD69); type: cell-based
Protocol: Cells were plated with 14-3-3ζ protein in a 96-well plate for 14 days at 37° C. in complete RPMI culture medium. Phytohemagglutinin (PHA) was used as a positive control. 10 μl MTT was added at a concentration of 5 mg/mL, and the plate was further incubated at 37° C. in the dark for 3 hours. Supernatant was then removed, and 100 μL DMSO was added for another hour before reading the absorbance at 570 nm using FLUOstar Omega microplate reader (BMG Labtech). For T cell differentiation, PBMCs were incubated with 1 μg/ml of 14-3-3ζ for 7 days followed by either the cellular staining for FACS analysis or ELISPOT as per manufacture's protocol. […] PBMCs incubated with 14-3-3ζ for 7 days at 37° C. were fixed in 2% paraformaldehyde for an hour, and washed with PBS. […] For surface staining, cells were stained in 50 μL PBS with 5 μl per million cells antibody for 30 minutes in the dark on ice. For intracellular staining, cells were permeabilized with Triton for 10-15 min. After staining, cells were washed with PBS and resuspended in 1 mL PBS for analysis. The following antibodies from Biolegend Inc. were used: […] Cells were sorted at FACSCanto II system (BD Biosciences) and analyzed using FlowJo software (version 10). A gate was created around an initial population of cells in the FSC-SSC plot, and this population of cells was further analyzed for CD4, CD366, and IL-17 expression. Unstained and isotype labelled cells were used as a control for setting the gates.

[9] = test system: Lewis rats; test: Pristane-induced arthritis (PIA) model, immunization with 14-3-3ζ in IFA; type: in vivo, rat
Protocol: FIG. 12A depicts the process used for this example for evaluating the prevention of RA in rats. All animals were injected with 150 μl of Pristane subcutaneously at the root of the tail followed by injecting either 1 mg/kg of IFA mixed with 14-3-3ζ protein or IFA alone the next day. Additional injection of either IFA alone or mixed with 14-3-3ζ proteins were given after one week. Animals were evaluated twice every week. Each joint (20 per paw, total of 80 per animal) was scored for inflammation. Both male and female rats were equally divided (n=6-8) between IFA and 14-3-3ζ treated sets. Rats were euthanized at 43 d and blood was collected for analysis.
Exposure to 14-3-3ζ generates a strong immune response in Lewis rats. Due to highly reproducible induction of severe inflammation and chronic arthritis, PIA is a one of the standard models to investigate rheumatoid arthritis an autoimmune disease. Intradermal injection of Pristane leads to a strong T-cell infiltration, followed by a cytokine increase as well as visual manifestation of joint inflammation, prominently observed in the Lewis rats. To test the antigenic role of 14-3-3ζ in vivo, purified 14-3-3ζ protein was injected along with IFA one day after the animals were treated with Pristane (FIG. 12A).
The animals were immunized with either IFA alone, or mixed with 14-3-3ζ (IFA+Z, 1 mg/kg) at 1 and 7 d-post pristine injection. Animals were monitored and scored for RA.

[10] = PIA treated Lewis rats immunized with 14-3-3ζ

## 14-3-3ζ: human 14-3-3ζ protein, SEQ ID NO: 1, purified from E. coli; injected mixed with IFA in rats
[1]
  IL-6 level: no significant effect
  accumulated secreted IL-17 (IL-17A): significant increased accumulation
  levels of IL-10 or IL-12: no effect
[2]; IFA and 14-3-3ζ
  induction of RA pathology (pathogenicity): no significant induction of RA pathology
[2]
  immunogenicity: 14-3-3ζ antibody generation and IL-17 induction: 14-3-3ζ antibody generation and IL-17 induction
[3]
  PBMC proliferation (MTT assay): promoted; also recorded: strong proliferation induction; also recorded: comparable and dose-dependent effect
[4]
  RA score: suppressed the RA
  body weight: gain in body weights
[5]; FIG. 6B and FIG. 12L
  level of IFN-γ (number of IFN-γ colonies) compared with 14-3-3ε: significantly more than 14-3-3ε
[5]; PBMC treated with protein for 7 d
  number of IFN-γ and IL-17 secreting cells: robust response; also recorded: robust increase
[6]
  CD69 expression on T cells (CD4 cells): increases CD69 expression; also recorded: increased; also recorded: strong impact
[7]
  rat PBMC proliferation: increased proliferation
[8]; 14-3-3ζ treated PBMC
  CD8+ cells (total number or activation): No significant increase; also recorded: No change; also recorded: no significant effect
[8]; 14-3-3ζ treated PBMC, 7 d
  total number of CD4+ cells: no significant change
[8]; presence of 14-3-3ζ
  CD4 cells positive for both CD366 and IL-17 (minor population <1%): unchanged
[8]; protein 1 μg/ml, 7 d
  CD366 or IL-17 positive CD4 cells (Th1, Th17): more CD366 or IL-17 positive CD4 cells; also recorded: significant increase
[9]; Lewis rats, pristane, 14-3-3ζ 1 mg/kg mixed with IFA at 1 and 7 d post pristane, compared to IFA alone, 1 mg/kg
  joint inflammation / arthritis (RA) score: protection against rheumatoid arthritis; also recorded: protection against the arthritis; also recorded: significantly less inflammation of joints; also recorded: significant reduction of RA scores; also recorded: absent; also recorded: relatively stronger inflammation in IFA treatment compared to 14-3-3ζ treatment; also recorded: no sign of arthritis; also recorded: prevents the development of RA
[9]; [10]
  increase in the level of IFN-γ in the circulating sera: 10 to 15 folds
  increase in the level of IL-17 in the circulating sera: 10 to 15 folds
  increase in the level of anti-14-3-3ζ IgG in the circulating sera: 10 to 15 folds
[9]; compared to IFA alone
  anti-14-3-3ζ antibody level (sera, synovial fluid): significant production of anti-14-3-3ζ IgG; also recorded: significantly higher levels; also recorded: increased 14-3-3ζ antibody levels
  circulating (sera) IFN-γ level: significantly higher levels; also recorded: much higher levels
  circulating IL-17 level: significantly higher levels
[9]; compared to IFA treated animal
  H&E stain: immune cell infiltration and tissue damage: lesser sign of inflammation and damage
